Assay results as given in ChEMBL document CHEMBL5260810, “Inhibition of bromodomain-containing protein 9 for the prevention of epigenetically-defined drug resistance” (Bioorg Med Chem Lett, 2017).

Tests used:
[1] = test system: AMO1; test: Cytotoxicity against human AMO1 cells measured after 8 days; assay type: functional, cell-based; settings: AMO1, 192 h
[2] = test system: NCI-H1838; test: Cytotoxicity against human NCI-H1838 cells measured after 8 days; assay type: functional, cell-based; settings: NCI-H1838, 192 h
[3] = test system: NCI-H2452; test: Cytotoxicity against human NCI-H2452 cells measured after 8 days; assay type: functional, cell-based; settings: NCI-H2452, 192 h
[4] = test system: SCC-3; test: Cytotoxicity against human SCC-3 cells measured after 8 days; assay type: functional, cell-based; settings: SCC-3, 192 h
[5] = test system: SKM-1; test: Cytotoxicity against human SKM-1 cells measured after 8 days; assay type: functional, cell-based; settings: SKM-1, 192 h
[6] = test system: WSUDLCL2; test: Cytotoxicity against human WSUDLCL2 cells measured after 8 days; assay type: functional, cell-based; settings: WSUDLCL2, 192 h
[7] = test system: AU565; test: Cytotoxicity against human AU565 cells measured after 8 days; assay type: functional, cell-based; settings: AU565, 192 h
[8] = test system: MDA-MB-157; test: Cytotoxicity against human MDA-MB-157 cells measured after 8 days; assay type: functional, cell-based; settings: MDA-MB-157, 192 h
[9] = test system: MX1; test: Cytotoxicity against human MX1 cells measured after 8 days; assay type: functional, cell-based; settings: MX1, 192 h
[10] = test system: T47D; test: Cytotoxicity against human T47D cells measured after 8 days; assay type: functional, cell-based; settings: 192 h
[11] = test system: HCT-15; test: Cytotoxicity against human HCT-15 cells measured after 8 days; assay type: functional, cell-based; settings: HCT-15, 192 h
[12] = test system: SK-MEL-28; test: Cytotoxicity against human SK-MEL-28 cells measured after 8 days; assay type: functional, cell-based; settings: SK-MEL-28, 192 h
[13] = target: Bromodomain-containing protein 4 (Homo sapiens, UniProt O60885); test: Binding affinity to full length BRD4 short isoform (unknown origin) by BROMOscan assay
[14] = target: Transcription initiation factor TFIID subunit 1-like (Homo sapiens, UniProt Q8IZX4); test: Binding affinity to human partial length TAF1L bromodomain 2 (Q1523 to D1654 residues) expressed in bacterial expression system by BROMOscan assay
Transcription initiation factor TFIID subunit 1-like, sequence (Q8IZX4 whole entry, the tested form may be a part): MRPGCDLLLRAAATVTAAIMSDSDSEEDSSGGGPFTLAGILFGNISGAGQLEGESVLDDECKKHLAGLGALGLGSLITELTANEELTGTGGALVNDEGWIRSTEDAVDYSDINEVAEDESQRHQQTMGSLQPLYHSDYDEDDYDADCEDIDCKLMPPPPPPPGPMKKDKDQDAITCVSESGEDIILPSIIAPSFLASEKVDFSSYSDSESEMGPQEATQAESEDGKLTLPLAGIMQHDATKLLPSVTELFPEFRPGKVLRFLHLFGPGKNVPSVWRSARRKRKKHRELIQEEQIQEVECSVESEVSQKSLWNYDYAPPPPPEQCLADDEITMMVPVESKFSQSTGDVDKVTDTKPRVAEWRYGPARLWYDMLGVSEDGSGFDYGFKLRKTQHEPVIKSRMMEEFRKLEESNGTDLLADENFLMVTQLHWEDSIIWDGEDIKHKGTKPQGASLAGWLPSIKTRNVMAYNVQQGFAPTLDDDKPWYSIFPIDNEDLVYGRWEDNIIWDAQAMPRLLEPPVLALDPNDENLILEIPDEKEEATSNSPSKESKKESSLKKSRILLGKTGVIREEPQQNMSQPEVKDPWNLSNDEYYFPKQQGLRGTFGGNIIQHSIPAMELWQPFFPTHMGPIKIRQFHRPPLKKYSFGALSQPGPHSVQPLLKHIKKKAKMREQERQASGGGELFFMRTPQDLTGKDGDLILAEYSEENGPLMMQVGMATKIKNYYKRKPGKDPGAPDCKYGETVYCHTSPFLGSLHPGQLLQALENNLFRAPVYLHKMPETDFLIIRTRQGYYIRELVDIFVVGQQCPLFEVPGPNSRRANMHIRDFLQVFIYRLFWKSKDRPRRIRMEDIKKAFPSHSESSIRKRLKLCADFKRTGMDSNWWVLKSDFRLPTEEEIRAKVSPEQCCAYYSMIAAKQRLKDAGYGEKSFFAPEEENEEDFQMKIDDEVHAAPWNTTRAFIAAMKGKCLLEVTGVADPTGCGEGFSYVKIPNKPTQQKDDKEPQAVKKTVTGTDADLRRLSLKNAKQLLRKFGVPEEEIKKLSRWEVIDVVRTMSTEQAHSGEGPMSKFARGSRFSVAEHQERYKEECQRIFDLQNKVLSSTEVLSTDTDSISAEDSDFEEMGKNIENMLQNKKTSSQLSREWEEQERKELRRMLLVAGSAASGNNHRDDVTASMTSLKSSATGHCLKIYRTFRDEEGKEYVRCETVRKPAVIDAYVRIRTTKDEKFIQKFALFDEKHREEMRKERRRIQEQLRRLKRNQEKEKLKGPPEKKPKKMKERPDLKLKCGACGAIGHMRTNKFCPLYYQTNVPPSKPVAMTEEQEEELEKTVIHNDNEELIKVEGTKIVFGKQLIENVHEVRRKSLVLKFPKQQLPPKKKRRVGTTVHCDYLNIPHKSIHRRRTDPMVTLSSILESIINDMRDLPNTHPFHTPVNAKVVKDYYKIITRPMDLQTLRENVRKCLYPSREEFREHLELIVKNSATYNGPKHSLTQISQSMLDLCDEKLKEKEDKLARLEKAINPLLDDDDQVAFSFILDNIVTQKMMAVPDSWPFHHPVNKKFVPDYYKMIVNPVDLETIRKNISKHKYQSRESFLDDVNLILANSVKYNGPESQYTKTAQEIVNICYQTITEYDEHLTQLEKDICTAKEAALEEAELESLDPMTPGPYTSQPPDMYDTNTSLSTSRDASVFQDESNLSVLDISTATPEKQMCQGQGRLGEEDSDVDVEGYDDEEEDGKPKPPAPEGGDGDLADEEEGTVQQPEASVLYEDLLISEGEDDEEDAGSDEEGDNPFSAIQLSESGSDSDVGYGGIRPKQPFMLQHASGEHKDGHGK

[15] = target: Dual specificity protein kinase CLK2 (Homo sapiens) (UniProt P49760); test: Inhibition of CLK2 (unknown origin) at 1 uM relative to control
Dual specificity protein kinase CLK2 (Homo sapiens), sequence (P49760 whole entry, looked up): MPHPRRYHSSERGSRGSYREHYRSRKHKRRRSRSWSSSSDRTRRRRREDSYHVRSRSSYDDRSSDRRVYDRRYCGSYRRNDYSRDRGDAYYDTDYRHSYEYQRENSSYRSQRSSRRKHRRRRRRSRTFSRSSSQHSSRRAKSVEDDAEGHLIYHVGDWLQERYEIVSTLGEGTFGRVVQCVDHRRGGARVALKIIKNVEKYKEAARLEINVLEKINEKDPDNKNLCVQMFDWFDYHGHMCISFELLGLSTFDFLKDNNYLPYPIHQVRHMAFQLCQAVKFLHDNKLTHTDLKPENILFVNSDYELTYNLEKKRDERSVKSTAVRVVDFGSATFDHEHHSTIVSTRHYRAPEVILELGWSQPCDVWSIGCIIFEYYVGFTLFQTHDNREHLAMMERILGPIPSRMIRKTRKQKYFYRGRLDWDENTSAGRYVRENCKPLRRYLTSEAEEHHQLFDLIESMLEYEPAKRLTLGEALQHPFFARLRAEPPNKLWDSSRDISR

[16] = target: T1, Myotonin-protein kinase (Homo sapiens) (UniProt Q09013); test: Inhibition of DMPK (unknown origin) at 1 uM relative to control
T1 sequence (whole entry): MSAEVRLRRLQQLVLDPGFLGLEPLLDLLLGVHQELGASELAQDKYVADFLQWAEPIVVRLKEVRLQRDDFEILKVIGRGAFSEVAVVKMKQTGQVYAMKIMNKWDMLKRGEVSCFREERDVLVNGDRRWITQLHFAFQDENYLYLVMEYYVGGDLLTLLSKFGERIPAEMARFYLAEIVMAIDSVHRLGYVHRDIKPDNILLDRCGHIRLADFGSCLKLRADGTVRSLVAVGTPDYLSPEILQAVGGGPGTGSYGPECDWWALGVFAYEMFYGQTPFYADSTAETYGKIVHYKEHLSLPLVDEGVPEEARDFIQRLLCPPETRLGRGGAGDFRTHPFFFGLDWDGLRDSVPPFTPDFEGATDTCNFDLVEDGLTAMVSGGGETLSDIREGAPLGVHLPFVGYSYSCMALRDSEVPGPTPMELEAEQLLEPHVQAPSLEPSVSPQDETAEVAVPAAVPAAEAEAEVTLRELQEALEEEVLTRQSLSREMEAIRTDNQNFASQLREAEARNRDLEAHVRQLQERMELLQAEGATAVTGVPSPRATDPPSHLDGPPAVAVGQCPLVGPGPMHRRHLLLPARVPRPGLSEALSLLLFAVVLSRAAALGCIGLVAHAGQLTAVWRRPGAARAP

[17] = target: Serine/threonine-protein kinase 24 (Homo sapiens) (UniProt Q9Y6E0); test: Inhibition of MST3 (unknown origin) at 1 uM relative to control
Serine/threonine-protein kinase 24 (Homo sapiens), sequence (Q9Y6E0 whole entry, looked up): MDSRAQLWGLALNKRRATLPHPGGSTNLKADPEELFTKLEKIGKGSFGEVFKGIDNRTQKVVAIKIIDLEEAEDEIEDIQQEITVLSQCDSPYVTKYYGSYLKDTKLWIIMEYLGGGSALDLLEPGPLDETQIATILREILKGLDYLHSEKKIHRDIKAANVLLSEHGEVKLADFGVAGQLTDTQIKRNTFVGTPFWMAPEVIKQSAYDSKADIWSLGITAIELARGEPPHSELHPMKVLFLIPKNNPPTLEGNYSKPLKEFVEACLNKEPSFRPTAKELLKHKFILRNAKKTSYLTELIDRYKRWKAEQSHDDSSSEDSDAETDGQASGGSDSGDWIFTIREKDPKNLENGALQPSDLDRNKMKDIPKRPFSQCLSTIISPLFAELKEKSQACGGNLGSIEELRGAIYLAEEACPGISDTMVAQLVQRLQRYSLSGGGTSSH

[18] = target: High affinity nerve growth factor receptor (Homo sapiens) (UniProt P04629); test: Inhibition of TrkA (unknown origin) at 1 uM relative to control
High affinity nerve growth factor receptor (Homo sapiens), sequence (P04629 33-796 limits assumed): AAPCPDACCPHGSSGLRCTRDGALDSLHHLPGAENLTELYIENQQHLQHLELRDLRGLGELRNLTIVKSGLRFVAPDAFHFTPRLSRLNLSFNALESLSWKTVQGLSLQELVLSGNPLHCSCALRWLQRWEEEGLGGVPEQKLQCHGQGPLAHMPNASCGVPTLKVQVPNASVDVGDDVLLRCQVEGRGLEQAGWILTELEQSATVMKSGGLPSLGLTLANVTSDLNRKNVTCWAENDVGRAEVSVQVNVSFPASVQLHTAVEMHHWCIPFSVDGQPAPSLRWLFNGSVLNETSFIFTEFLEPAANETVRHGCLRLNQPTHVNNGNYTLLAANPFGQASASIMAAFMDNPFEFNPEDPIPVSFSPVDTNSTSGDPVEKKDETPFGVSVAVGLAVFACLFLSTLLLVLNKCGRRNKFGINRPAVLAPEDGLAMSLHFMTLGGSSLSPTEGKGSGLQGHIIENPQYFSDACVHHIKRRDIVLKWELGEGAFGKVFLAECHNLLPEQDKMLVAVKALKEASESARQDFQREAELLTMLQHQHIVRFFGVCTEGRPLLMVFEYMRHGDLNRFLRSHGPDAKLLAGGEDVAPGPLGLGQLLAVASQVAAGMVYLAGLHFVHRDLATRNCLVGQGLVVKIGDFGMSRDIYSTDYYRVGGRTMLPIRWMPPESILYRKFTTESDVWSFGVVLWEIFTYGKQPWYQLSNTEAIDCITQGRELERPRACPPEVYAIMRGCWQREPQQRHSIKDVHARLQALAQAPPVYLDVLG

[19] = target: Adenosine receptor A2a (Homo sapiens) (UniProt P29274); test: Displacement of [3H]-CGS 21680 from human recombinant adenosine A2A receptor at 10 uM after 120 mins by scintillation counting analysis relative to control
Adenosine receptor A2a (Homo sapiens), sequence (P29274 whole entry): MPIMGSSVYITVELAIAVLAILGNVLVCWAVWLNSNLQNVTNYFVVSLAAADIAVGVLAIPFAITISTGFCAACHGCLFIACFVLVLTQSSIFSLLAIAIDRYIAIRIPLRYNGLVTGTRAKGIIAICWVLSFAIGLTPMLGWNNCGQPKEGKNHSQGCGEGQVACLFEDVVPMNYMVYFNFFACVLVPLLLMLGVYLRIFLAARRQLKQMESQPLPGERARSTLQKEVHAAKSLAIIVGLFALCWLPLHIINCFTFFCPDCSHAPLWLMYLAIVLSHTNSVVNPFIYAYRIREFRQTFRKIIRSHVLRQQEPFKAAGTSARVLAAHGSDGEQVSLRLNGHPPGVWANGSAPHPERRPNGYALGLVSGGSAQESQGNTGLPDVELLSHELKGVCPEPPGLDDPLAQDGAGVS

[20] = target: Beta-2 adrenergic receptor (Homo sapiens) (UniProt P07550); test: Displacement of [3H](-)CGP 12177 from human recombinant beta2 adrenoceptor at 10 uM after 120 mins by scintillation counting analysis relative to control
Beta-2 adrenergic receptor (Homo sapiens), sequence (P07550 whole entry, looked up): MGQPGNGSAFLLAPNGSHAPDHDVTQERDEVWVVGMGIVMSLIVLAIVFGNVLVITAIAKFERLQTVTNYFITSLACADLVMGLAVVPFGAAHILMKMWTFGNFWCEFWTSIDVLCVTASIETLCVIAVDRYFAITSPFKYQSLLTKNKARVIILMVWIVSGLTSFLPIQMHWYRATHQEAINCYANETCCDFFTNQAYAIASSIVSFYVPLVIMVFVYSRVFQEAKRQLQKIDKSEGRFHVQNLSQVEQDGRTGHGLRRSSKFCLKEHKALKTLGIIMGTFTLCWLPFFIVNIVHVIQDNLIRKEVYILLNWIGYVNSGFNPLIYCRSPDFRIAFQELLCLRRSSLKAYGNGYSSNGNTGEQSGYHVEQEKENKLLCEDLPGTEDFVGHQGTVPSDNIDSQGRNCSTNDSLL

[21] = target: T2, Endothelin-1 receptor (Homo sapiens) (UniProt P25101); test: Displacement of [125I]-endothelin-1 from human recombinant ETA receptor at 10 uM after 120 mins by scintillation counting analysis relative to control
T2 sequence (whole entry): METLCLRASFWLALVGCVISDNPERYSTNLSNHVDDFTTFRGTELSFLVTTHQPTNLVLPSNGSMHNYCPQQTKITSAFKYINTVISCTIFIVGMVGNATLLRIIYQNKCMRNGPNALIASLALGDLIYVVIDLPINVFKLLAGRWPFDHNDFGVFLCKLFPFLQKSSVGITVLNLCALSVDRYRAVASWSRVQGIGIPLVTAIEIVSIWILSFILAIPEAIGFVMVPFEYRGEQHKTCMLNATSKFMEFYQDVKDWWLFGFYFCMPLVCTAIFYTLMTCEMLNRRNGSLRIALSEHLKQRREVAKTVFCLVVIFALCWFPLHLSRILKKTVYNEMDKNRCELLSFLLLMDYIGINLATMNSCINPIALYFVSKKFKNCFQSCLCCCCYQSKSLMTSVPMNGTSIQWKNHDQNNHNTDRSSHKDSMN

[22] = target: T3, Muscarinic acetylcholine receptor M2 (Homo sapiens) (UniProt P08172); test: Displacement of [3H]AF-DX 384 from human recombinant M2 receptor at 10 uM after 60 mins by scintillation counting analysis relative to control
T3 sequence (whole entry): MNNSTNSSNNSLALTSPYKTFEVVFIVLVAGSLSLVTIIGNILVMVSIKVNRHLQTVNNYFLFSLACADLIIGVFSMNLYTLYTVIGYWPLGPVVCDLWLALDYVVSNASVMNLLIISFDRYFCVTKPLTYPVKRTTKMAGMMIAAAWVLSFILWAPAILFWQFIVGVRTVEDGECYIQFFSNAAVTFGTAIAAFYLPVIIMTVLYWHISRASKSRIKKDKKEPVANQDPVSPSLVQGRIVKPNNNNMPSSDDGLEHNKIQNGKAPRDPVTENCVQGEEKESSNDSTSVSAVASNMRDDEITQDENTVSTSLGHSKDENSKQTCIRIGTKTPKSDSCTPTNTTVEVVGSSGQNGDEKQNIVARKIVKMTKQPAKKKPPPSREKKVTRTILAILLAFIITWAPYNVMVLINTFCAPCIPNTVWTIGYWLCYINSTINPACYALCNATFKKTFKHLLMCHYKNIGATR

[23] = target: Sodium-dependent serotonin transporter (Homo sapiens) (UniProt P31645); test: Displacement of [3H]-imipramine from recombinant human 5-HT transporter at 10 uM after 60 mins by scintillation counting relative to control
Sodium-dependent serotonin transporter (Homo sapiens), sequence (P31645 whole entry, looked up): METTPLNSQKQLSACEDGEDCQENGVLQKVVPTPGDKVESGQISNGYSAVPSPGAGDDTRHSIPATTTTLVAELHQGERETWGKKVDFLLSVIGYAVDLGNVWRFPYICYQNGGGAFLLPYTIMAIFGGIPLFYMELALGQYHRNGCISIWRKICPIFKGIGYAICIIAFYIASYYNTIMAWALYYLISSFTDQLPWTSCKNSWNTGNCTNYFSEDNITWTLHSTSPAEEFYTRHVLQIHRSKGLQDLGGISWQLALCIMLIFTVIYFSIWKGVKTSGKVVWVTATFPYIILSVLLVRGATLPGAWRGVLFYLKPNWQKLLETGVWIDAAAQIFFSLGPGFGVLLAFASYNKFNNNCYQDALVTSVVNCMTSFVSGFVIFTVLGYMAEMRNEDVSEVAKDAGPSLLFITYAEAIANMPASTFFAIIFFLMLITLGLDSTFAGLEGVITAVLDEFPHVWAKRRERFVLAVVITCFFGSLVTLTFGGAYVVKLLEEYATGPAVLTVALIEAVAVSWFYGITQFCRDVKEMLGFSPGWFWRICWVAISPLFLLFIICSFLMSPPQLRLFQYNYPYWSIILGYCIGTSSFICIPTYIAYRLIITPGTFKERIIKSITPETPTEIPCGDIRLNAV

SMILES | IC50 [1] [µM] | IC50 [2] [µM] | IC50 [3] [µM] | IC50 [4] [µM] | IC50 [5] [µM] | IC50 [6] [µM] | IC50 [7] [µM] | IC50 [8] [µM] | IC50 [9] [µM] | IC50 [10] [µM] | IC50 [11] [µM] | IC50 [12] [µM] | Kd [13] [µM] | Kd [14] [µM] | inhibition [15] [%] | inhibition [16] [%] | inhibition [17] [%] | inhibition [18] [%] | Activity [19] [%] | Activity [20] [%] | also measured
C/C=C/Cn1cc(-c2cc(OC)c(C(=O)N3CCOCC3)cc2OC)c2cc(C)[nH]c2c1=O | 2 | 2 | 2 | 2 | 2 | 2 | 2 | 2 | 2 | 2 | 2 | 2 | > 10 | > 10 | 7.5 | -4 | 7 | 12 | 12 | -1 | Activity [21]: 16%; Activity [22]: -8%; Activity [23]: 4%
C/C=C/Cn1cc(-c2ccc(C(C)(C)O)cc2OC)c2cc[nH]c2c1=O | 20 | 20 | 20 | 20 | 20 | 7.32 | 20 | 20 | 20 | 20 | 14.6 | 20 | 0.58 | > 10 | 8 | 2.5 | 6 | 12.5 | 8 | 5 | Activity [21]: 12%; Activity [22]: -10%; Activity [23]: 3%
C/C=C/Cn1cc(-c2ccc(C(=O)N3CCOCC3)cc2)c2cc[nH]c2c1=O | 20 | 20 | 20 | 20 | 13.9 | 8.31 | 20 | 20 | 20 | 20 | 20 | 20 | 1.2 | 0.61 | 2 | -2 | -2.5 | 21.4 | 8 | 1 | Activity [21]: 10%; Activity [22]: -7%; Activity [23]: 3%
C/C=C/Cn1cc(-c2cc(OC)c(C(C)(C)O)cc2OC)c2cc(C)[nH]c2c1=O | – | – | – | – | – | – | – | – | – | – | – | – | > 10 | > 10 | – | – | – | – | – | – | –
